Experimental findings from patent US20070010671A1, “Novel quinazoline derivatives and methods of treatment related to the use thereof” (priority 2003, published 2007) are described below.

The target in this test is MCH receptor (Homo sapiens, UniProt Q99705). The test can be described thus: High throughput functional screening FLIPR/FDSS6000: inhibition of MCH-evoked intracellular Ca2+ changes. As to conditions: class by percent of control at 10^−7 M or by IC50; read-out: class. The format is cell-based. An outline of the steps:
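Cells expressing constitutively active MCH receptor, loaded with 4 μM Fluo4-AM for 1 h at 37 °C, were pretreated 3 min with compound, then challenged with MCH (50 nM for antagonist testing). MCH-evoked [Ca2+]i transients followed by FLIPR or FDSS (ex 488/em 530 nm) over 290 s.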

Take `CN(C)c1nc(N[C@H]2CC[C@@H](NC(=O)CN(C)c3ccccc3)CC2)nc2ccccc12` [Example 1088, N-(cis-4-{[4-(dimethylamino)quinazolin-2-yl]amino}cyclohexyl)-N2-methyl-N2-phenylglycinamide]: the IC50 was less than 0.05 µM.
As for `CN(C)c1nc(N[C@H]2CC[C@@H](NC(=O)CNc3ccc(Cl)cc3)CC2)nc2ccccc12` [Example 1089, N2-(4-chlorophenyl)-N-(cis-4-{[4-(dimethylamino)quinazolin-2-yl]amino}cyclohexyl)glycinamide], the figure is less than 0.05 µM; as for `COc1cccc(NCC(=O)N[C@H]2CC[C@@H](Nc3nc(N(C)C)c4ccccc4n3)CC2)c1` [Example 1090, N-(cis-4-{[4-(dimethylamino)quinazolin-2-yl]amino}cyclohexyl)-N2-(3-methoxyphenyl)glycinamide], less than 0.05 µM.
As for `CN(C)c1nc(N[C@H]2CC[C@@H](NC(=O)CNc3ccc(F)cc3)CC2)nc2ccccc12` [Example 1091, N-(cis-4-{[4-(dimethylamino)quinazolin-2-yl]amino}cyclohexyl)-N2-(4-fluorophenyl)glycinamide], the figure is less than 0.05 µM; as for `CN(C)c1nc(N[C@H]2CC[C@@H](CNC(=O)[C@@H](O)c3cccc(Cl)c3)CC2)nc2ccccc12` [Example 1100, (2S)-2-(3-chlorophenyl)-N-[(cis-4-{[4-(dimethylamino)-quinazolin-2-yl]amino}cyclohexyl)methyl]-2-hydroxyacetamide], 0.05 to 0.2 µM; as for `CN(C)c1nc(N[C@H]2CC[C@@H](CNC(=O)[C@H](O)c3ccccc3Cl)CC2)nc2ccccc12` [Example 1101, (2R)-2-(2-chlorophenyl)-N-[(cis-4-{[4-(dimethylamino)-quinazolin-2-yl]amino}cyclohexyl)methyl]-2-hydroxyacetamide], 0.05 to 0.2 µM.
In the case of `CN(C)c1nc(N[C@H]2CC[C@@H](CNC(=O)[C@H](O)c3ccccc3)CC2)nc2ccccc12` [Example 1102, (2R)-N-[(cis-4-{[4-(dimethylamino)quinazolin-2-yl]amino}cyclohexyl)methyl]-2-hydroxy-2-phenylacetamide], the IC50 is greater than 0.2 µM.
Consider `CN(C)c1nc(N[C@H]2CC[C@@H](CNC(=O)[C@@H](O)c3ccccc3)CC2)nc2ccccc12` [Example 1103, (2S)-N-[(cis-4-{[4-(dimethylamino)quinazolin-2-yl]amino}cyclohexyl)methyl]-2-hydroxy-2-phenylacetamide], for which the IC50 was greater than 0.2 µM.
To `CN(C)c1nc(N[C@H]2CC[C@@H](NC(=O)[C@H](O)c3cccc(Cl)c3)CC2)nc2ccccc12` [Example 1111, (2R)-2-(3-chlorophenyl)-N-(cis-4-{[4-(dimethylamino)-quinazolin-2-yl]amino}cyclohexyl)-2-hydroxyacetamide] belongs less than 0.05 µM; to `CN(C)c1nc(N[C@H]2CC[C@@H](NC(=O)[C@@H](O)c3ccccc3Cl)CC2)nc2ccccc12` [Example 1114, (2S)-2-(2-chlorophenyl)-N-(cis-4-{[4-(dimethylamino)quinazolin-2-yl]amino}cyclohexyl)-2-hydroxyacetamide], less than 0.05 µM; to `COc1cc(OC)cc(C(=O)NC[C@@H]2CC[C@H](Nc3nc(N(C)C)c4ccccc4n3)C2)c1` [Example 1120, N-[((1R,3S)-3-{[4-(dimethylamino)quinazolin-2-yl]amino}cyclopentyl)methyl]-3,5-dimethoxybenzamide], less than 0.05 µM.
To `CN(C)c1nc(N[C@H]2CC[C@@H](CNC(=O)c3ccc(Cl)cc3)C2)nc2ccccc12` [Example 1121, 4-chloro-N-[((1R,3S)-3-{[4-(dimethylamino)quinazolin-2-yl]amino}cyclopentyl)methyl]benzamide] belongs 0.05 to 0.2 µM.
To `CN(C)c1nc(N[C@H]2CC[C@@H](CNC(=O)c3cccc(Cl)c3)C2)nc2ccccc12` [Example 1122, 3-chloro-N-[((1R,3S)-3-{[4-(dimethylamino)quinazolin-2-yl]amino}cyclopentyl)methyl]benzamide] belongs less than 0.05 µM; to `CN(C)c1nc(N[C@H]2CC[C@@H](CNC(=O)c3c(Cl)cc(Cl)cc3Cl)C2)nc2ccccc12` [Example 1123, 2,4,6-trichloro-N-[((1R,3S)-3-{[4-(dimethylamino)quinazolin-2-yl]amino}cyclopentyl)methyl]benzamide], less than 0.05 µM.
On to `CN(C)c1nc(N[C@H]2CC[C@@H](CNC(=O)c3ccc(C(F)(F)F)c(F)c3)C2)nc2ccccc12` [Example 1124, N-[((1R,3S)-3-{[4-(dimethylamino)quinazolin-2-yl]amino}-cyclopentyl)methyl]-3-fluoro-4-(trifluoromethyl)benzamide], for which the IC50 is greater than 0.2 µM.
Regarding `CN(C)c1nc(N[C@H]2CC[C@@H](CNC(=O)c3ccc(C(F)(F)F)cc3F)C2)nc2ccccc12` [Example 1125, N-[((1R,3S)-3-{[4-(dimethylamino)quinazolin-2-yl]amino}-cyclopentyl)methyl]-2-fluoro-4-(trifluoromethyl)benzamide], the IC50 is greater than 0.2 µM.
As for `CN(C)c1nc(N[C@H]2CC[C@@H](CNC(=O)c3cc(C(F)(F)F)ccc3C(F)(F)F)C2)nc2ccccc12` [Example 1126, N-[((1R,3S)-3-{[4-(dimethylamino)quinazolin-2-yl]amino}cyclopentyl)methyl]-2,5-bis(trifluoromethyl)benzamide], the figure is greater than 0.2 µM; as for `CN(C)c1nc(N[C@H]2CC[C@@H](CNC(=O)c3cccc(C(F)(F)F)c3)C2)nc2ccccc12` [Example 1127, N-[((1R,3S)-3-{[4-(dimethylamino)quinazolin-2-yl]amino}cyclopentyl)methyl]-3-(trifluoromethyl)benzamide], less than 0.05 µM.
As for `CN(C)c1nc(N[C@H]2CC[C@@H](CNC(=O)c3ccc(OC(F)(F)F)cc3)C2)nc2ccccc12` [Example 1128, N-[((1R,3S)-3-{[4-(dimethylamino)quinazolin-2-yl]amino}cyclopentyl)methyl]-4-(trifluoromethoxy)benzamide], the figure is greater than 0.2 µM; as for `CN(C)c1nc(N[C@H]2CC[C@@H](CNC(=O)c3cc(F)ccc3F)C2)nc2ccccc12` [Example 1129, N-[((1R,3S)-3-{[4-(dimethylamino)quinazolin-2-yl]amino}cyclopentyl)methyl]-2,5-difluorobenzamide], 0.05 to 0.2 µM; as for `CN(C)c1nc(N[C@H]2CC[C@@H](CNC(=O)c3cc(F)cc(F)c3)C2)nc2ccccc12` [Example 1130, N-[((1R,3S)-3-{[4-(dimethylamino)quinazolin-2-yl]amino}cyclopentyl)methyl]-3,5-difluorobenzamide], less than 0.05 µM.
For `CN(C)c1nc(NC[C@@H]2CC[C@H](NC(=O)c3cccc(F)c3)C2)nc2ccccc12` [Example 1132, N-[(1S,3R)-3-({[4-(dimethylamino)quinazolin-2-yl]amino}methyl)cyclopentyl]-3-fluorobenzamide], the IC50 was greater than 0.2 µM.
To `CN(C)c1nc(NC[C@@H]2CC[C@H](NC(=O)c3ccc(F)cc3F)C2)nc2ccccc12` [Example 1133, N-[(1S,3R)-3-({[4-(dimethylamino)quinazolin-2-yl]amino}methyl)cyclopentyl]-2,4-difluorobenzamide] belongs greater than 0.2 µM.
As for `CN(C)c1nc(N[C@H]2CC[C@@H](C(=O)NCc3ccccc3)CC2)nc2ccccc12` [Example 1135, cis-N-benzyl-4-{[4-(dimethylamino)quinazolin-2-yl]amino}cyclohexanecarboxamide], the IC50 is less than 0.05 µM.
As for `CN(C)c1nc(N[C@H]2CC[C@@H](C(=O)NCc3ccc(Cl)nc3)CC2)nc2ccccc12` [Example 1136, cis-N-[(6-chloropyridin-3-yl)methyl]-4-{[4-(dimethylamino)quinazolin-2-yl]amino}cyclohexanecarboxamide], the figure is less than 0.05 µM.
Consider `COc1cccc([C@@H](C)NC(=O)[C@H]2CC[C@@H](Nc3nc(N(C)C)c4ccccc4n3)CC2)c1` [Example 1137, cis-4-{[4-(dimethylamino)quinazolin-2-yl]amino}-N-[(1R)-1-(3-methoxyphenyl)ethyl]cyclohexanecarboxamide], for which the IC50 was less than 0.05 µM.
As for `C[C@@H](NC(=O)[C@H]1CC[C@@H](Nc2nc(N(C)C)c3ccccc3n2)CC1)c1ccc(Cl)cc1` [Example 1139, cis-N-[(1R)-1-(4-chlorophenyl)ethyl)-4-{[4-(dimethylamino)quinazolin-2-yl]amino}cyclohexanecarboxamide], the IC50 was less than 0.05 µM.
As for `C[C@H](NC(=O)[C@H]1CC[C@@H](Nc2nc(N(C)C)c3ccccc3n2)CC1)c1cccc2ccccc12` [Example 1141, cis-4-{[4-(dimethylamino)quinazolin-2-yl]amino}-N-[(1S)-1-(1-naphthyl)ethyl]cyclohexanecarboxamide], the figure is less than 0.05 µM; as for `Cc1cc(C)cc(CNC(=O)[C@H]2CC[C@@H](Nc3nc(N(C)C)c4ccccc4n3)CC2)c1` [Example 1142, cis-4-{[4-(dimethylamino)quinazolin-2-yl]amino}-N-(3,5-dimethylbenzyl)cyclohexanecarboxamide], less than 0.05 µM.
As for `Cc1ccc(CNC(=O)[C@H]2CC[C@@H](Nc3nc(N(C)C)c4ccccc4n3)CC2)cc1F` [Example 1143, cis-4-{[4-(dimethylamino)quinazolin-2-yl]amino}-N-(3-fluoro-4-methylbenzyl)cyclohexanecarboxamide], the figure is 0.05 to 0.2 µM; as for `Cc1c(Cl)cccc1CNC(=O)[C@H]1CC[C@@H](Nc2nc(N(C)C)c3ccccc3n2)CC1` [Example 1144, cis-N-(3-chloro-2-methylbenzyl)-4-{[4-(dimethylamino)quinazolin-2-yl]amino}cyclohexanecarboxamide], less than 0.05 µM; as for `Cc1ccc(Cl)cc1CNC(=O)[C@H]1CC[C@@H](Nc2nc(N(C)C)c3ccccc3n2)CC1` [Example 1145, cis-N-(5-chloro-2-methylbenzyl)-4-{[4-(dimethylamino)quinazolin-2-yl]amino}cyclohexanecarboxamide], 0.05 to 0.2 µM.
